# Values quoted from earlier work, collected in article PMC12359172, “Cell and tissue reprogramming: Unlocking a new era in medical drug discovery” (Pharmacological Reviews, 2025).
# How the values were obtained:
# [1] = test system: AMD iPSC-derived RPE cells; design: method as in PMID 35056119, PMID 33918210; details: ref [431],[432]
# [2] = test system: human dermal fibroblasts / primary human cardiac fibroblasts; details: for effect on cardiac fibroblast reprogramming: alongside MEF2C and TBX5 (MT), chemical screen of 2000 compounds, ref [472]; for reprogramming efficiency: HDF with GATA4, MEF2C, TBX5, MYOCD, NKX2-5, miR-1 and miR-133a plus small molecules, ref [468]
# [3] = design: method as in PMID 10066283, PMID 9704384; details: ref [843],[844]
# Müller glia (MG) = details: NMDA-induced injury, intraperitoneal injection as printed; ref [333]
# [4] = test system: skin fibroblasts from patients with ALS, HFFs, FAD fibroblasts; details: human induced motor neuron model, chemical screen; ref [508]
# [5] = design: method as in PMID 32392694, PMID 27490705; details: ref [392],[393]
# [6] = test system: SMA iPSC-derived motor neurons; design: method as in PMID 19098894; details: ref [391]
# [7] = test system: iPSC-derived cardiac organoid; design: method as in PMID 32284552; details: ref [442]
# [8] = test system: iPSC-derived cardiomyocytes (KCNQ1/TRPM4 mutation); details: ref [413]
# YAP = test system: YAP; design: method as in PMID 33888614; details: ref [139]
compound,measurement,setting,value
NC(=O)c1ncn([C@@H]2O[C@H](COP(=O)(O)O)[C@@H](O)[C@H]2O)c1N [5-aminoimidazole-4-carboxamide ribonucleotide],effect on mitochondrial function,[1],improved mitochondrial function
CCS(=O)(=O)N1CC(CC#N)(n2cc(-c3ncnc4[nH]ccc34)cn2)C1 [Baricitinib],effect on cardiac fibroblast reprogramming,[2],significantly improved reprogramming efficiency and promoted spontaneous contractile activity
"O=c1[nH]c(=O)n([C@H]2C[C@H](O)[C@@H](CO)O2)cc1Br [BrdU, bromodeoxyuridine]",developmental toxicity,[3],dose-dependent genetic and neurologic developmental defects
Cc1c[nH]c(-c2cnc(NCCNc3ccc(C#N)cn3)nc2-c2ccc(Cl)cc2Cl)n1 [CHIR99021],reprogramming efficiency,[2],< 25%
COCCOc1ccc(-c2cn(-c3ccccc3)c3nc[nH]c(=O)c23)cc1 [DMX-5804],effect on Müller glia,Müller glia (MG),promoted MG proliferation and conversion to a retinal progenitor cell–like state
CC(C)(C)c1nc2c3cc[nH]c(=O)c3c3cc(F)ccc3c2[nH]1 [JAK1 inhibitor (EMD4Biosciences; 420099)],reprogramming efficiency,[2],< 25%
O=C1Cc2c([nH]c3ccc(Br)cc23)-c2ccccc2N1 [Kenpaullone],rescue of ALS-specific disease characteristics,[4],"rescuing ALS-specific disease characteristics, including restoring electrophysiological activity and the ability to form NMJs"
CN(C)C(=N)N=C(N)N [Metformin],effect on mitochondrial function,[1],improved mitochondrial function
NC(=O)c1ccc(-c2nc(-c3ccc4c(c3)OCO4)c(-c3ccccn3)[nH]2)cc1 [SB431542],effect on cardiac fibroblast reprogramming,[2],significantly improved reprogramming efficiency and promoted spontaneous contractile activity
"CCCC(CCC)C(=O)O [VPA, valproic acid]",clinical trial outcome,[5],failed in clinical trials
same,drug screening outcome,[6],potential treatments
Oc1nc(-c2ccc(C(F)(F)F)cc2)nc2c1CSCC2 [Xav939],iCM function,"[2]; MST cocktail (MYOCD, SMAD6, TBX20) combined with FGF2 and XAV939, primary human cardiac fibroblasts, ref [536]",spontaneous contractions and calcium transients
COc1cccc2c1C(=O)c1c(O)c3c(c(O)c1C2=O)C[C@@](O)(C(=O)CO)C[C@@H]3O[C@H]1C[C@H](N)[C@H](O)[C@H](C)O1 [doxorubicin],cardiotoxicity detected by model,[7],cardiotoxic effects
NC[C@H]1O[C@H](O[C@H]2[C@H](O)[C@@H](O[C@H]3O[C@H](CO)[C@@H](O)[C@H](N)[C@H]3O)[C@H](N)C[C@@H]2N)[C@H](N)C[C@@H]1O [tobramycin],drug screening outcome,[6],potential treatments
COc1ccc(CCN(C)CCCC(C#N)(c2ccc(OC)c(OC)c2)C(C)C)cc1OC (stereo not shown) [verapamil],drug screening outcome,[8],potential treatment
verteporfin,fibroblast-mediated regeneration,YAP,"enhance fibroblast-mediated regeneration, improving mechanical strength and reducing scarring"
